Like-named read-outs stand apart in the source and are kept apart here.
Experiments:
Assay type in all cases: cell-based
[1] = system: A549 (human lung cancer cells)
Protocol: (§1) MCF-7, HT-29, A549 and HepG2 cells are got from American Tissue Culture Collection, which are cultured with the culture medium containing 10% bovine fetal serum in a CO2-containing incubator at 37° C. MTT method is used to detect cell proliferation and growth inhibition. The number of experimental cells is adjusted to obtain the absorbance at 570 nm. 6 concentrations are set for the compound test solution (0.1 nmol/L˜10 μmol/L). The cells are treated for 72 hours. At least 3 parallel experiments and 3 repeated experiments are conducted for each concentration. The IC50 value is determined by statistical analysis.
(§2) Taking cisplatin as the contrast, the in vitro growth inhibitory activity of Compound 1 and Compound 2 on tumor cells are tested, including MCF7 (human breast cancer cells), HT-29 (human colon cancer cells), A549 (human lung cancer cells) and HepG2 (liver cancer cells).

[2] = system: HepG2 (liver cancer cells)
Protocol: as §1, §2

[3] = system: MCF7 (human breast cancer cells)
Protocol: as §1, §2

[4] = system: HT-29 (human colon cancer cells)
Protocol: as §1, §2

[5] = A549 cells, MTT, 72 hours treatment
[6] = HepG2 cells, MTT, 72 hours treatment
[7] = MCF7 cells, MTT, 72 hours treatment
[8] = HT-29 cells, MTT, 72 hours treatment

tri-n-butyltin (IV) (3-Trifluoromethyl Phenyl) acetylenyl phosphonic acid derivatives [Compound 2]
IC50 [1]: 274 nM
IC50 [2]: 872 nM
IC50 [3]: 1730 nM
IC50 [4]: 962 nM

N.N.[Cl][Pt][Cl] [Cisplatin, cisplatin, reference compound]
IC50 [1, 5]: 1300 nM
IC50 [2, 6]: 17000 nM
IC50 [3, 7]: 43000 nM
IC50 [4, 8]: 35000 nM

Tri-n-butyltin (IV) (3,5-dimethylphenyl) Acetylenyl Phosphonic Acid Derivatives [Compound 1]
IC50 [1, 5]: 33 nM
IC50 [2, 6]: 211 nM
IC50 [3, 7]: 194 nM
IC50 [4, 8]: 635 nM

From patent publication US11787826B2, “Hydrocarbyl tin complex of alkynyl phosphonic acid with antitumor activity and application thereof” (priority 2020, dated 2023)
